Experiments:
[1] = Antagonist activity at human dopamine D3 receptor expressed in CHOp cells assessed as inhibition of quinpirol-induced mitogenesis incubated for 24 hrs by [3H]thymidine incorporation assay
[2] = Antagonist activity at human dopamine D2 receptor expressed in CHOp cells assessed as inhibition of quinpirol-induced mitogenesis incubated for 24 hrs by [3H]thymidine incorporation assay
[3] = Agonist activity at human dopamine D3 receptor expressed in CHOp cells assessed as stimulation of mitogenesis incubated for 24 hrs by [3H]thymidine incorporation assay

SMILES | IC50 [1] [µM] | IC50 [2] [µM] | EC50 [3] [µM]
Oc1cccc(CCN(CCc2ccccc2)CC2CCC2)c1 | 0.953 | 1.65 | > 10
CCCN(CCc1ccccc1)CCc1cccc(O)c1 | – | – | 0.0053
Oc1cccc(CCN(CCc2ccccc2)CC2CC2)c1 | – | – | 0.032
CCCCCCN(CCc1ccccc1)CCc1cccc(O)c1 | – | 1.25 | –
